Literature values in patent US12569575B2, “Radiopaque particle compositions and uses thereof” (GUSTAVE ROUSSY TRANSFERT, priority 2021, dated 2026).
Values after ≈ are worked out from the molar mass of the structure shown. Counter-ions that a name gives are not always drawn. Like-named read-outs stand apart in the source and are kept apart here.

Conditions: for Solubility in DMSO: solvent DMSO

| SMILES | Solubility in DMSO | also measured |
| --- | --- | --- |
| C[C@]12O[C@H](C[C@]1(O)CO)n1c3ccccc3c3c4c(c5c6ccccc6n2c5c31)CNC4=O [Lestaurtinib] | 44 mg/mL (≈ 100 mM) |  |
| C#Cc1cccc(Nc2ncnc3cc(OCCOC)c(OCCOC)cc23)c1 [Erlotinib HCl] | 20 mg/mL |  |
| COc1cccc2c1C(=O)c1c(O)c3c(c(O)c1C2=O)C[C@@](O)(C(=O)CO)C[C@@H]3O[C@H]1C[C@H](N)[C@@H](O)[C@H](C)O1 [Epirubicin HCl] | 10 mg/mL | Solubility in Water (solvent water): 10 mg/mL |
| COc1cc2nc(N3CCN(C(=O)C4CCCO4)CC3)nc(N)c2cc1OC (centres unmarked) [Terazosin] |  | Solubility in Water (solvent water): 20 mg/mL (≈ 51.6 mM) |
| Nc1ccn([C@@H]2O[C@H](CO)[C@@H](O)C2(F)F)c(=O)n1 [Gemcitabine] | 5 mg/mL (≈ 19 mM) | Solubility in Water (solvent water): 25 mg/mL (≈ 95 mM) |
| COc1cc2c(Nc3ccc(Br)cc3F)ncnc2cc1OCC1CCN(C)CC1 [Vandetanib] | 30 mg/mL (≈ 63.1 mM) | Solubility in Water (in pH 6.5): 5 mg/mL (≈ 10.5 mM) |
| Cc1ccc(NC(=O)c2ccc(CN3CCN(C)CC3)cc2)cc1Nc1nc(-c2cccnc2)cs1 [Masitinib] | >95 mg/mL | Solubility in Water (solvent water): <1.2 mg/mL |
| COc1cc(Nc2c(C#N)cnc3cc(OCCCN4CCN(C)CC4)c(OC)cc23)c(Cl)cc1Cl [Bosutinib] | 100 mg/mL (≈ 189 mM) |  |
| CN1CCN(c2ccc3nc(-c4c(N)c5c(F)cccc5[nH]c4=O)[nH]c3c2)CC1 [Dovitinib] | 40 mg/mL (≈ 102 mM) |  |
| CNC(=O)c1cc(Oc2ccc(NC(=O)Nc3ccc(Cl)c(C(F)(F)F)c3)cc2)ccn1 [Sorafenib] | 92 mg/mL (≈ 198 mM) |  |
| CCN(CC)CCNC(=O)c1c(C)[nH]c(/C=C2\C(=O)Nc3ccc(F)cc32)c1C [Sunitinib] | 100 mg/mL (≈ 251 mM) | Solubility in Water (in citrate buffer): 2 mg/mL (≈ 5.02 mM) |
| C=CC(=O)Nc1cc2c(Nc3ccc(F)c(Cl)c3)ncnc2cc1OCCCN1CCOCC1 [Canertinib diHCl] | >5.6 mg/mL | Solubility in Water (solvent water): 10 mg/mL |
| COc1cccc2c1C(=O)c1c(O)c3c(c(O)c1C2=O)C[C@@](O)(C(=O)CO)C[C@@H]3O[C@H]1C[C@H](N)[C@H](O)[C@H](C)O1 [Doxorubicin HCl] | 100 mg/mL |  |
| COc1cc2ncnc(Nc3ccc(F)c(Cl)c3)c2cc1OCCCN1CCOCC1 [Gefitinib] | 20 mg/mL (≈ 44.8 mM) |  |
| CNC(=O)c1cc(Oc2ccc(NC(=O)Nc3ccc(Cl)c(C(F)(F)F)c3)c(F)c2)ccn1 [Regorafenib] | 97 mg/mL (≈ 201 mM) |  |
| COc1cc2nccc(Oc3ccc(NC(=O)C4(C(=O)Nc5ccc(F)cc5)CC4)cc3)c2cc1OC [Cabozantinib malate] | 18 mg/mL |  |
| CS(=O)(=O)CCNCc1ccc(-c2ccc3ncnc(Nc4ccc(OCc5cccc(F)c5)c(Cl)c4)c3c2)o1.Cc1ccc(S(=O)(=O)O)cc1.Cc1ccc(S(=O)(=O)O)cc1 [Lapatinib toluene-sulfonate] | 200 mg/mL |  |
| CNC(=O)c1ccccc1Sc1ccc2c(/C=C/c3ccccn3)n[nH]c2c1 [Axitinib] | 77 mg/mL (≈ 199 mM) |  |
| Cc1ccc(Nc2nccc(N(C)c3ccc4c(C)n(C)nc4c3)n2)cc1S(N)(=O)=O [Pazopanib] | 95 mg/mL (≈ 217 mM) |  |
| Clc1ccc(Nc2nnc(Cc3ccncc3)c3ccccc23)cc1 [Vatalanib diHCl] | 85 mg/mL | Solubility in Water (solvent water): 10 mg/mL |
| Cc1nc(Nc2ncc(C(=O)Nc3c(C)cccc3Cl)s2)cc(N2CCN(CCO)CC2)n1 [Dasatinib] | 98 mg/mL (≈ 201 mM) |  |
| Cc1cn(-c2cc(NC(=O)c3ccc(C)c(Nc4nccc(-c5cccnc5)n4)c3)cc(C(F)(F)F)c2)cn1 [Nilotinib] | 50 mg/mL (≈ 94.4 mM) |  |
| COc1cc2nccc(Oc3ccc(NC(=O)NC4CC4)c(Cl)c3)c2cc1C(N)=O [Levatinib mesylate] | 9 mg/mL |  |
| CC(=O)[C@]1(O)Cc2c(O)c3c(c(O)c2[C@@H](O[C@H]2C[C@H](N)[C@H](O)[C@H](C)O2)C1)C(=O)c1ccccc1C3=O [Idarubicin HCl] | 10 mg/mL | Solubility in Water (solvent water): 1 mg/mL |
